Where a SMILES comes first, the peptide text is derived from it. [ ]: non-standard residue; d: D form. ξ: configuration not given here. ξBip(2'-Et-4'-OMe) = CCc1cc(OC)ccc1-c1ccc(CC(N)C(=O)O)cc1; ξαMe(hhPhe) = CC(N)(CCCc1ccccc1)C(=O)O; ξαMePhe(2-F) = CC(N)(Cc1ccccc1F)C(=O)O; hArg = N=C(N)NCCCC[C@H](N)C(=O)O; NMeV = CN[C@H](C(=O)O)C(C)C; ξαMeNle = CCCCC(C)(N)C(=O)O; Ac5c = NC1(C(=O)O)CCCC1; Aib = CC(C)(N)C(=O)O
System: ovariectomised (OVX) rats
Experiment: In vivo anti-osteoporosis activity testing in OVX rat model (serum calcium, phosphate, bone parameters)
Parameters: species or system Female Wistar Rats
Details: po
Outline: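 Female Wistar rats aged 10–11 weeks were bilaterally ovariectomised and rested 4 weeks, then treated for 6 weeks with short-chain peptides, PTH standard or nothing (n=9). Fasting overnight urine and serum taken 24 h post-dose were assayed for calcium, phosphate, acid phosphatase and TRAP. Femur, tibia and L5 underwent histomorphometry.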

SMILES	% decrease in serum PO4 Levels (mg/dl) vs control (2 mg/kg)	% increase in serum Ca^2+ Levels (mg/dl) vs control (2 mg/kg)	% decrease in serum PO4 Levels (mg/dl) vs control (0.9 mg/kg)	% increase in serum Ca^2+ Levels (mg/dl) vs control (0.9 mg/kg)
CCCCC(C)(NC(=O)[C@H](CC(C)C)NC(=O)[C@H](CCC(N)=O)NC(=O)[C@@H](NC(=O)[C@H](CCC(=O)O)NC(=O)C(C)(C)NC(=O)[C@@H](NC(=O)C1(NC(=O)[C@@H](NC)C(C)C)CCCC1)C(C)C)[C@@H](C)CC)C(=O)N[C@@H](Cc1c[nH]cn1)C(=O)N[C@@H](CCC(N)=O)C(=O)N[C@@H](CCCCNC(=N)N)C(=O)N[C@@H](C)C(=O)N[C@@H](CCCCNC(=N)N)C(=O)NC(Cc1ccc(-c2ccc(OC)cc2CC)cc1)C(=O)NC(C)(CCCc1ccccc1)C(N)=O (stereo partly shown) [Seq. ID. 929] (H-[NMeV][Ac5c]V[Aib]EIQL[ξαMeNle]HQ[hArg]A[hArg][ξBip(2'-Et-4'-OMe)][ξαMe(hhPhe)]-NH2)	90%	121%		
CCCCC(C)(NC(=O)[C@H](CC(C)C)NC(=O)[C@H](CCC(N)=O)NC(=O)[C@@H](NC(=O)[C@H](CCC(=O)O)NC(=O)C(C)(C)NC(=O)[C@@H](NC(=O)C1(NC(=O)[C@@H](NC)C(C)C)CCCC1)C(C)C)[C@@H](C)CC)C(=O)N[C@@H](Cc1c[nH]cn1)C(=O)N[C@@H](CCC(N)=O)C(=O)N[C@@H](CCCCNC(=N)N)C(=O)N[C@@H](C)C(=O)N[C@@H](CCCCNC(=N)N)C(=O)NC(C)(Cc1ccccc1F)C(=O)NC(C)(CCCc1ccccc1)C(N)=O (stereo partly shown) [Seq. ID. 941] (H-[NMeV][Ac5c]V[Aib]EIQL[ξαMeNle]HQ[hArg]A[hArg][ξαMePhe(2-F)][ξαMe(hhPhe)]-NH2)			95%	99%

Source: patent US8383581B2, “Short-chain peptides as parathyroid hormone (PTH) receptor agonist” (Cadila Healthcare Limited, priority 2009, dated 2013)
